# Where two headings read alike, the source gives them in different places.
# B1: γ-IFN: rat recombinant γ-interferon, 100 U/ml, used to increase MHC class I and class II expression in FRTL-5 cells (protein, UniProt P01581 23-156, looked up)
# Interferon gamma: QGTLIESLESLKNYFNSSSMDAMEGKSLLLDIWRNWQKDGNTKILESQIISFYLRLFEVLKDNQAISNNISVIESHLITNFFSNSKAKKDAFMSIAKFEVNNPQIQHKAVNELIRVIHQLSPESSLRKRKRSRC
# Assays:
# [1] = tested on: swine class I promoter (PD1); assay: Luciferase assay, FRTL-5 cells stably transfected with class I promoter-luciferase chimeras; format: cell-based; conditions: for inhibition at 10 µM / inhibition at 25 µM / inhibition at 100 µM / inhibition at 1000 µM: Sus scrofa
# Text: The swine PD1 5′-flanking sequence-CAT chimeras (−1100, −203, and −127), as well as two mutants with the CRE site with −107 to −100 bp deleted (−203ΔCRE and −127ΔCRE) were used to create luciferase reporter gene constructs. The inserts were released by restriction enzyme digestion, purified from agarose gel using QIAEX (QIAGEN, Chatsworth, Calif.) and ligated in the NheI-HindIII site of the PGL-2 basic vector (PROMEGA, Madison, Wis.) using a DNA ligation kit from TAKARA biomedicals (TAKARA SHUZO Co). JM109 bacterial competent cells (PROMEGA, Madison, Wis.) were transformed with the ligation reaction and plated in agar plates for 12 h at 37° C. The colonies were picked and screened with minipreps using QIAprep spin plasmid kit (QIAGEN, Chatsworth, Calif.) and restriction enzyme digestion. The plasmids were then purified by CsCl gradient centrifugation.
# The PD1-PGL-2 basic constructs and the Class II-PGL-2 basic constructs were stably transfected in the FRTL-5 cells using a Lipofectamine (GIBCO, Life Technologies, Inc.) method. Near confluent cells in 6H medium were cotransfected with 20 μg of plasmid DNA and 2 μg of a pcDNA3neo or a pPUR selection vector (CLONTECH, Palo Alto, Calif.). After 24-48 hours, 400 μg/ml of G418 (GIBCO, Life Technologies, Inc.) or 10 μM of puromycin (SIGMA) were added to the medium. After 3 weeks the antibiotic-resistant colonies were cloned by limiting dilution and screened to determine their interferon sensitivity. At least 5 cell lines of each construct were isolated, each of whose activity was increased by adding 100 U/ml γ interferon to the medium of the cells. The following data (Tables 10-13) were obtained with one clone of each of the class I or class II-luciferase chimera, but were representative of at least three other clones of each.
# Luciferase activity was measured using the Luciferase assay system (PROMEGA, Madison, Wis.). Briefly, treated or untreated cells from a 100 mm culture dish were washed with PBS, scraped and collected in microfuge tubes. The pellet was dissolved in 100 μl 1× reporter lysis buffer and incubated at room temperature for 15 minutes. Cells were frozen in dry ice plus ethanol and thawed in water at room temperature. After vortexing for 10 sec, tubes were centrifuged at 12,000×g for 5 min. Twenty μl of the supernatant were mixed with 100 μl of Luciferase assay reagent and immediately placed in a luminometer. Light was measured for a period of 10 sec after a 2 sec delay.
# Treatment of cells, maintained either in the presence of TSH or its absence, with 100 U/ml interferon, increased class I and class II promoter activity (Table 10). In this experiment FRTL-5 cells were grown to 80% confluency in 6H medium with TSH then treated with 100 U/ml γ-interferon, 5 mM MMI or both together. Luciferase activity was measured after 40 hours as described. Several points are notable. First, interferon increases both class I and class II promoter activity in the stable transfectants. Second, MMI inhibits both interferon-increased class I and interferon-increased class II promoter activity.
# [2] = tested on: MHC class I antigen expression; assay: Flow cytometry of IFN-increased class I antigen expression in FRTL-5 cells; format: cell-based, rat; conditions: 100 U/ml γ-interferon, 6H medium (TSH), 40 hours
# Method: In this experiment 10^6 cells were incubated with MHC class II or MHC class I-specific antibodies as described (Montani, V., et al., ibid (1998b); Saji, M., et al., ibid (1992a); Balducci-Silano, P. L., et al., Endocrinology 139:2309-2313 (1998)). After 30 min on ice, cells were washed with phosphate buffered saline at pH 7.4 and incubated for 30 min with fluorescein-isothiocyanate (FITC)-conjugated antibodies then analyzed by flow cytometry on a FACScan Cytometer using CellQuest software (Becton Dickinson).
# The concentration needed to achieve suppression of the interferon induced class I or class II surface expression was determined by testing different concentrations of the compounds (Table 18). Like all other assays, the order of effectiveness was compound 10>11>7 or 8>2>MMI>3.
# [3] = FRTL-5, 10 μM, 100 U/ml γ-interferon, 6H medium, 40 hours, read-out: % inhibition of IFN-increased p(−203)LUC class I promoter activity
# [4] = FRTL-5, 25 μM, 6H medium, 40 hours, read-out: % inhibition of basal p(−203)LUC class I promoter activity
# [5] = FRTL-5, 100 μM, 6H medium, 40 hours, read-out: % inhibition of basal p(−203)LUC class I promoter activity
# [6] = FRTL-5, 100 μM, 100 U/ml γ-interferon, 6H medium, 40 hours, read-out: % inhibition of IFN-increased p(−203)LUC class I promoter activity
# [7] = FRTL-5, 1.0 mM, 6H medium, 40 hours, read-out: % inhibition of basal p(−203)LUC class I promoter activity
# [8] = FRTL-5, 1.0 mM, 100 U/ml γ-interferon, 6H medium, 40 hours, read-out: % inhibition of IFN-increased p(−203)LUC class I promoter activity
# [9] = FRTL-5, read-out: % inhibition of IFN-increased p(−203)LUC class I promoter activity
# [10] = FRTL-5, read-out: % inhibition of basal p(−203)LUC class I promoter activity
Molecule,"inhibition at 10 µM [1, 3]","inhibition at 25 µM [1, 4]","inhibition at 100 µM [1, 5]","inhibition at 100 µM [1, 6]","inhibition at 1000 µM [1, 7]","inhibition at 1000 µM [1, 8]","Concentration to inhibit IFN-increased antigen expression, Class I [2]",also measured
"Cn1c(-c2ccccc2)cnc1S [Compound 10, 5-Phenylmethimazole]",45 ± 7%,41 ± 5%,51 ± 3%,90 ± 17%,52 ± 8%,90 ± 13%,40 ± 10 µM,–
"Sc1nc2ccccc2[nH]1 [Compound 4, 2-Mercaptobenzimidazole]",–,–,–,–,–,–,–,"inhibition at 10 µM [1, 9]: 0%; inhibition at 100 µM [1, 9]: 0%; inhibition at 1000 µM [1, 9]: 39 ± 6%; inhibition at 25 µM [1, 10]: 0%; inhibition at 100 µM [1, 10]: 0%; inhibition at 1000 µM [1, 10]: 50 ± 5%"
"CSc1nccn1C [Compound 7, S-Methylmethimazole]",0%,0%,10 ± 6%,24 ± 6%,44 ± 4%,62 ± 9%,424 ± 31 µM,–
"O=[N+]([O-])c1ccc2[nH]c(S)nc2c1 [Compound 5, 2-Mercapto-5-nitrobenzimidazole]",0%,0%,0%,0%,0%,9 ± 7%,–,–
"Cn1ccn(C)c1=S [Compound 8, N-Methylmethimazole]",–,–,–,–,–,–,356 ± 70 µM,"% inhibition of IFN-increased p(−203)LUC class I promoter activity ([1]; 10 μM, 100 U/ml γ-interferon, 6H medium, 40 hours): 0%; % inhibition of basal p(−203)LUC class I promoter activity ([1]; 25 μM, 6H medium, 40 hours): 9 ± 6%; % inhibition of basal p(−203)LUC class I promoter activity ([1]; 100 μM, 6H medium, 40 hours): 44 ± 10%; % inhibition of IFN-increased p(−203)LUC class I promoter activity ([1]; 100 μM, 100 U/ml γ-interferon, 6H medium, 40 hours): 42 ± 14%; % inhibition of basal p(−203)LUC class I promoter activity ([1]; 1.0 mM, 6H medium, 40 hours): 51 ± 7%; % inhibition of IFN-increased p(−203)LUC class I promoter activity ([1]; 1.0 mM, 100 U/ml γ-interferon, 6H medium, 40 hours): 77 ± 10%"
"Sc1ncc[nH]1 [Compound 3, 2-Mercaptoimidazole]",–,0%,0%,–,0%,–,No Inhibition,–
"Cn1ccnc1S [Compound 1, 1-Methylimidazole-2-thiol]",0%,0%,0%,0%,0%,45 ± 10%,5000 µM,"effect on basal p(−203) class I luciferase activity ([1]; 1 or 5 mM, stable transfectants): no significant effect; Luciferase activity + 5 mM MMI ([1]; Vector-LUC Control, 40 hours): 100 ± 6 % Control; Luciferase activity +γ-IFN + 5 mM MMI ([1]; Vector-LUC Control, 40 hours): 105 ± 5 % Control; Luciferase activity + 5 mM MMI ([1]; p(−127) class I-LUC, 40 hours): 135 ± 17 % Control; Luciferase activity +γ-IFN + 5 mM MMI ([1]; p(−127ΔCRE) class I-LUC, 40 hours): 101 ± 4 % Control; Luciferase activity + 5 mM MMI ([1]; p(−203) class I-LUC, 40 hours): 105 ± 38 % Control; Luciferase activity +γ-IFN + 5 mM MMI ([1]; p(−203ΔCRE) class I-LUC, 40 hours): 106 ± 6 % Control"
"Cc1cnc(S)n1C [Compound 9, 5-Methylmethimazole]",0%,0%,0%,0%,10 ± 10%,15 ± 11%,–,–
"Cc1ncc([N+](=O)[O-])n1CCO [Compound 2, 2-Methyl-5-nitro-1-imidazole ethanol]",0%,0%,0%,10 ± 6%,42 ± 6%,57 ± 5%,500 ± 1400 µM,–
"Cc1ccc2[nH]c(S)nc2c1 [Compound 6, 2-Mercapto-5-methylbenzimidazole]",–,0%,0%,–,0%,19 ± 10%,–,–
B1,–,–,–,–,–,–,–,"Luciferase activity +γ-IFN ([1]; Vector-LUC Control, 100 U/ml γ-interferon, 40 hours): 102 ± 6 % Control; Luciferase activity +γ-IFN ([1]; p(−127) class I-LUC, 100 U/ml γ-interferon, 40 hours): 180 ± 19 % Control; Luciferase activity +γ-IFN ([1]; p(−127ΔCRE) class I-LUC, 100 U/ml γ-interferon, 40 hours): 92 ± 10 % Control; Luciferase activity +γ-IFN ([1]; p(−203) class I-LUC, 100 U/ml γ-interferon, 40 hours): 495 ± 30 % Control; Luciferase activity +γ-IFN ([1]; p(−203ΔCRE) class I-LUC, 100 U/ml γ-interferon, 40 hours): 139 ± 16 % Control"

# Reference: patent US6365616B1, “Methimazole derivatives and tautomeric cyclic thiones to treat autoimmune diseases” (Sentron Medical, Inc., priority 1998, dated 2002)
